Results on 10 compounds are retold here after patent US11851411B2, “Herbicidal compounds” (SYNGENTA CROP PROTECTION AG, priority 2018, dated 2023).

Molecules are shown by their SMILES.

Holding throughout (assay type): in vivo
Experiment [1] relates to Echinochloa crus-galli (ECHCG). As to the kind of experiment: Glasshouse herbicide test, post-emergence. Conditions: POST Application; 500 g/h; evaluated after 13 days. The protocol:
(§1) Seeds of a variety of test species are shown in standard soil in pots (Lolium perenne (LOLPE), Amaranthus retoflexus (AMARE), Abutilon theophrasti (ABUTH), Setaria faberi (SETFA), Echinochloa crus-galli (ECHCG), Ipomoea hederacea (IPOHE)). After cultivation for one day (pre-emergence) or after 8 days cultivation (post-emergence) under controlled conditions in a glasshouse (at 24/16° C., day/night; 14 hours light; 65% humidity), the plants are sprayed with an aqueous spray solution derived from the formulation of the technical active ingredient in acetone/water (50:50) solution containing 0.5% Tween 20 (polyoxyethelyene sorbitan monolaurate, CAS RN 9005-64-5). Compounds are applied at 500 g/h. The test plants are then grown in a glasshouse under controlled conditions in a glasshouse (at 24/16° C., day/night; 14 hours light; 65% humidity) and watered twice daily. After 13 days for pre and post-emergence, the test is evaluated for the percentage damage caused to the plant. The biological activities are shown in the following table on a five point scale (5=80-100%; 4=60-79%; 3=40-59%; 2=20-39%; 1=0-19%).

The test system of experiment [2] is Ipomoea hederacea (IPOHE). Nature of the experiment: Glasshouse herbicide test, post-emergence. To be noted: POST Application; 500 g/h; evaluated after 13 days. As for the experimental part:
as §1

Experiment [3] has as its system Abutilon theophrasti (ABUTH). Nature of the experiment: Glasshouse herbicide test, post-emergence. Conditions: POST Application; 500 g/h; evaluated after 13 days. The protocol:
as §1

The subject of experiment [4] is Amaranthus retoflexus (AMARE). Nature of the experiment: Glasshouse herbicide test, post-emergence. To be noted: POST Application; 500 g/h; evaluated after 13 days. The protocol: as §1
Experiment [5] concerns Setaria faberi (SETFA). As to the kind of experiment: Glasshouse herbicide test, post-emergence. To be noted: POST Application; 500 g/h; evaluated after 13 days. As for the experimental part:
as §1

The subject of experiment [6] is Echinochloa crus-galli (ECHCG). Nature of the experiment: Glasshouse herbicide test, pre-emergence. Conditions: PRE Application; 500 g/h; evaluated after 13 days. The protocol:
as §1

The subject of experiment [7] is Ipomoea hederacea (IPOHE). As to the kind of experiment: Glasshouse herbicide test, pre-emergence. To be noted: PRE Application; 500 g/h; evaluated after 13 days. The protocol:
as §1

Experiment [8] deals with Abutilon theophrasti (ABUTH). Nature of the experiment: Glasshouse herbicide test, pre-emergence. To be noted: PRE Application; 500 g/h; evaluated after 13 days. The protocol:
as §1

Experiment [9] has as its system Amaranthus retoflexus (AMARE). Nature of the experiment: Glasshouse herbicide test, pre-emergence. Conditions: PRE Application; 500 g/h; evaluated after 13 days. The protocol:
as §1

Experiment [10] concerns Setaria faberi (SETFA). Nature of the experiment: Glasshouse herbicide test, pre-emergence. To be noted: PRE Application; 500 g/h; evaluated after 13 days. As for the experimental part: as §1

With `CON(C(C)=O)c1c(C(F)(F)F)ccc(C(=O)Nc2nnc(C)o2)c1Cl` [Compound 2.001], the “percentage damage caused to the plant, five point scale, ECHCG” value (from here on “percentage damage caused … ECHCG”) in [1] and in [6] was 5 (5=80-100%) each time. The “percentage damage caused to the plant, five point scale, IPOHE” value (“percentage damage caused … IPOHE” below) in experiment [2] is listed as 5 (5=80-100%); in experiment [7], 4 (4=60-79%). Also, the “percentage damage caused to the plant, five point scale, ABUTH” value (shortened to “percentage damage caused … ABUTH”) in experiment [3] and in [8] was 5 (5=80-100%) each time. For the same compound, the “percentage damage caused to the plant, five point scale, AMARE” value (“percentage damage caused … AMARE” for short) in experiment [4] and in experiment [9] was 5 (5=80-100%) throughout. The “percentage damage caused to the plant, five point scale, SETFA” value (“percentage damage caused … SETFA” below) in the experiment on Setaria faberi (SETFA) [5] and in the experiment with Setaria faberi (SETFA) [10] was 5 (5=80-100%) in each case.

In the case of `CCON(C)c1c(S(C)(=O)=O)ccc(C(=O)Nc2nnnn2CC)c1Cl` [Compound 1.055], the “percentage damage caused … ECHCG” value in experiment [1] and in [6] was 5 (5=80-100%) each time. Further, the “percentage damage caused … IPOHE” value in experiment [2] and in [7] was 5 (5=80-100%) each time. For the same compound, the “percentage damage caused … ABUTH” value in [3] and in experiment [8] was 5 (5=80-100%) in each case. Besides, the “percentage damage caused … AMARE” value in experiment [4] and in experiment [9] was 5 (5=80-100%) each time. For the same compound, the “percentage damage caused … SETFA” value in the experiment on Setaria faberi (SETFA) [5] and in the experiment with Setaria faberi (SETFA) [10] was 5 (5=80-100%) in each case.

Take `CCCn1nnnc1NC(=O)c1ccc(S(C)(=O)=O)c(N(OC)C(C)=O)c1Cl` [Compound 1.009, 3-[acetyl(methoxy)amino]-2-chloro-4-methylsulfonyl-N-(1-propyltetrazol-5-yl)benzamide]: the “percentage damage caused … ECHCG” value in [1] and in experiment [6] was 5 (5=80-100%) in each case. Further, the “percentage damage caused … IPOHE” value in [2] and in experiment [7] was 5 (5=80-100%) in each case. In addition, the “percentage damage caused … ABUTH” value in experiment [3] and in experiment [8] was 5 (5=80-100%) throughout. In addition, the “percentage damage caused … AMARE” value in experiment [4] and in experiment [9] was 5 (5=80-100%) each time. For the same compound, the “percentage damage caused … SETFA” value was 5 (5=80-100%) in the experiment on Setaria faberi (SETFA) [5] and 4 (4=60-79%) with Setaria faberi (SETFA) [10].

For `CON(C)c1c(C(F)(F)F)ccc(C(=O)Nc2nnnn2C)c1F` [Compound 1.065], the “percentage damage caused … ECHCG” value in [1] and in experiment [6] was 5 (5=80-100%) in each case. For the same compound, the “percentage damage caused … IPOHE” value in experiment [2] and in experiment [7] was 5 (5=80-100%) throughout. Moreover, the “percentage damage caused … ABUTH” value in [3] and in experiment [8] was 5 (5=80-100%) throughout. Besides, the “percentage damage caused … AMARE” value in [4] and in experiment [9] was 5 (5=80-100%) throughout. Also, the “percentage damage caused … SETFA” value in the experiment on Setaria faberi (SETFA) [5] and with Setaria faberi (SETFA) [10] was 5 (5=80-100%) each time.

For the compound `CCS(=O)(=O)c1ccc(C(=O)Nc2nnnn2C)c(Cl)c1N(C)OC` [Compound 1.062], the “percentage damage caused … ECHCG” value in experiment [1] and in experiment [6] was 5 (5=80-100%) in each case. For the same compound, the “percentage damage caused … IPOHE” value in experiment [2] and in [7] was 5 (5=80-100%) throughout. Moreover, the “percentage damage caused … ABUTH” value in [3] and in experiment [8] was 5 (5=80-100%) in each case. The “percentage damage caused … AMARE” value in experiment [4] and in experiment [9] was 5 (5=80-100%) throughout. Also, the “percentage damage caused … SETFA” value in the experiment on Setaria faberi (SETFA) [5] and in the experiment with Setaria faberi (SETFA) [10] was 5 (5=80-100%) each time.

For the compound `CON(C(C)=O)c1c(S(C)(=O)=O)ccc(C(=O)Nc2nnnn2C)c1Cl` [Compound 1.007], the “percentage damage caused … ECHCG” value in experiment [1] and in [6] was 5 (5=80-100%) in each case. Besides, the “percentage damage caused … IPOHE” value in [2] and in experiment [7] was 5 (5=80-100%) in each case. The “percentage damage caused … ABUTH” value in [3] and in [8] was 5 (5=80-100%) each time. Also, the “percentage damage caused … AMARE” value in experiment [4] and in experiment [9] was 5 (5=80-100%) each time. In addition, the “percentage damage caused … SETFA” value in the experiment on Setaria faberi (SETFA) [5] is 5 (5=80-100%); with Setaria faberi (SETFA) [10] it was 3 (3=40-59%).

Take `CCC(=O)N(OC)c1c(C(F)(F)F)ccc(C(=O)Nc2nnc(C)o2)c1Cl` [Compound 2.018]: the “percentage damage caused … ECHCG” value in experiment [1] and in [6] was 5 (5=80-100%) each time. For the same compound, the “percentage damage caused … IPOHE” value in [2] is recorded as 5 (5=80-100%); in [7], 4 (4=60-79%). The “percentage damage caused … ABUTH” value in experiment [3] and in experiment [8] was 5 (5=80-100%) throughout. The “percentage damage caused … AMARE” value in experiment [4] and in experiment [9] was 5 (5=80-100%) each time. The “percentage damage caused … SETFA” value with Setaria faberi (SETFA) [5] and in the experiment with Setaria faberi (SETFA) [10] was 5 (5=80-100%) in each case.

As to `CON(C(=O)C(C)(C)C)c1c(C(F)(F)F)ccc(C(=O)Nc2nnnn2C)c1F` [Compound 1.063], the “percentage damage caused … ECHCG” value in [1] and in [6] was 5 (5=80-100%) each time. The “percentage damage caused … IPOHE” value was 4 (4=60-79%) in experiment [2] and 2 (2=20-39%) in experiment [7]. Moreover, the “percentage damage caused … ABUTH” value in [3] and in experiment [8] was 5 (5=80-100%) throughout. Also, the “percentage damage caused … AMARE” value in experiment [4] and in experiment [9] was 5 (5=80-100%) in each case. Besides, the “percentage damage caused … SETFA” value with Setaria faberi (SETFA) [5] and with Setaria faberi (SETFA) [10] was 5 (5=80-100%) throughout.

Take `CCCn1nnnc1NC(=O)c1ccc(S(C)(=O)=O)c(N(C)OC)c1Cl` [Compound 1.045]: the “percentage damage caused … ECHCG” value in experiment [1] and in [6] was 5 (5=80-100%) throughout. In addition, the “percentage damage caused … IPOHE” value in experiment [2] and in [7] was 5 (5=80-100%) throughout. Moreover, the “percentage damage caused … ABUTH” value in experiment [3] and in [8] was 5 (5=80-100%) throughout. For the same compound, the “percentage damage caused … AMARE” value in experiment [4] and in experiment [9] was 5 (5=80-100%) in each case. Further, the “percentage damage caused … SETFA” value with Setaria faberi (SETFA) [5] and in the experiment with Setaria faberi (SETFA) [10] was 5 (5=80-100%) throughout.

`CC(C)ON(C)c1c(S(C)(=O)=O)ccc(C(=O)Nc2nnnn2C)c1Cl` [Compound 1.057]: the “percentage damage caused … ECHCG” value in experiment [1] and in [6] was 5 (5=80-100%) each time. The “percentage damage caused … IPOHE” value in [2] and in experiment [7] was 5 (5=80-100%) each time. The “percentage damage caused … ABUTH” value in experiment [3] and in experiment [8] was 5 (5=80-100%) throughout. For the same compound, the “percentage damage caused … AMARE” value in experiment [4] and in [9] was 5 (5=80-100%) in each case. Besides, the “percentage damage caused … SETFA” value in the experiment with Setaria faberi (SETFA) [5] and with Setaria faberi (SETFA) [10] was 5 (5=80-100%) in each case.
